# Data reported in patent US20220323390A1, “DIETARY SUPPLEMENT TO PROMOTE GUT HEALTH” (TERRAGENICS NUTRITION, INC., priority 2019, published 2022).
# What was measured:
# Assay type in all cases: cell-based, human
# [1] = test system: Caco-2/HT29-MTX co-cultures; assay: Transepithelial electrical resistance (TEER) of TNFα/IFNγ-treated co-cultures given colonic batch samples; conditions: TNFα/IFNγ stimulation
# Source text: Caco-2, when seeded on suitable supports, spontaneously differentiate Into mature enterocyte-like cells, characterized by polarization, presence of villi, formation of domes, presence of tight junctions and vectorial transport and expression of apical brush-border enzymes (reviewed by Sambuy, Y., et al. (2005) Cell Biology and Toxicology. 21: 1-26). The mucus layer is mimicked by co-culturing Caco-2 cells with HT29-MTX cells, a mucin producing human cell line. This model is considered a useful in vitro intestinal model.
# Barrier function was evaluated by measuring TEER and expression of tight junction and mucin genes in the co-culture model using TNF alpha/IFN gamma as an inflammatory insult. Inulin and sodium butyrate were used as positive controls. The test products were administered at three different concentrations. […]
# Caco-2/HT29-MTX monolayers were cultured for 14 days, with three medium changes/week, until a functional cell monolayer with a transepithelial electrical resistance (TEER) was obtained. […] Before treatment, the TEER of the Caco-2/HT29-MTX monolayers was measured (0 h time point). The TEER of an empty insert was subtracted from all readings to account for the residual electrical resistance of an insert. […] Cells were treated for 48 h and the TEER was measured at 24 h (=24 h time point) and 48 h (=48 h time point). […]
# TEER was measured again at 24 h and 48 h of incubation. […]
# [2] = test system: mucin-3; assay: qPCR gene expression of mucin-3 in Caco-2/HT29-MTX co-culture; conditions: 48 h; compared to the TNFα/IFNγ control
# Description: (§1) Caco-2/HT29-MTX monolayers were cultured for 14 days, with three medium changes/week, until a functional cell monolayer with a transepithelial electrical resistance (TEER) was obtained. Cells were maintained in Dulbecco's Modified Eagle Medium (DMEM) containing glucose and glutamine and supplemented with HEPES and 20% (v/v) heat-inactivated (HI) fetal bovine serum (FBS). Before treatment, the TEER of the Caco-2/HT29-MTX monolayers was measured (0 h time point). The TEER of an empty insert was subtracted from all readings to account for the residual electrical resistance of an insert. The apical compartment (containing the Caco-2/HT29-MTX cells) was filled with sterile-filtered (0.22 μm) colonic batch suspensions. […] Cells were treated for 48 h and the TEER was measured at 24 h (=24 h time point) and 48 h (=48 h time point). […]
# (§2) After 48 h, cells were lysed in RNA lysis buffer, centrifuged and the […] collected. qPCR is performed for tight junction genes (claudin-1, -2, -3 and -4, and occludin) and mucin genes (mucin 3); 2 housekeeping genes were Included. […] Mucins can be measured as disclosed for example in Leteutre, E. et al, Biology of the Cell 96 (2004) 145-151. Mucin turnover can be assessed as described for example in Schneider, H. et al, Nature Scientific Reports | (2018) 8:5760 | DOI:10.1038/s41598-018-24148-x. […]
# [3] = test system: occludin; assay: qPCR gene expression of occludin in Caco-2/HT29-MTX co-culture; conditions: 48 h; compared to the TNFα/IFNγ control
# Description: as §1, §2
# [4] = test system: claudin-2; assay: qPCR gene expression of claudin-2 in Caco-2/HT29-MTX co-culture; conditions: 48 h; compared to the TNFα/IFNγ control
# Description: as §1, §2
# [5] = test system: claudin-1; assay: qPCR gene expression of claudin-1 in Caco-2/HT29-MTX co-culture; conditions: 48 h; compared to the TNFα/IFNγ control
# Description: as §1, §2
# [6] = test system: claudin-3; assay: qPCR gene expression of claudin-3 in Caco-2/HT29-MTX co-culture; conditions: 48 h; compared to the TNFα/IFNγ control
# Description: as §1, §2
# [7] = test system: claudin-4; assay: qPCR gene expression of claudin-4 in Caco-2/HT29-MTX co-culture; conditions: 48 h; compared to the TNFα/IFNγ control
# Description: as §1, §2
smiles,measurement,setting,value
CCCC(=O)[O-].[Na+] [Sodium butyrate],decrease in TEER,[1]; 24 h of incubation,approximately 80%
same,TEER relative to initial value,[1]; 48 h of incubation,increased the TEER above its initial value
same,expression of mucin-3,[2],strongly increased the expression
same,expression of occludin,[3],increased the expression
same,expression of claudin-2,[4],decreased the expression
same,expression of claudin-1,[5],No effect
same,expression of claudin-3,[6],increased the expression
same,expression of claudin-4,[7],increased the expression
